“Also recorded” adds a separate entry of the source.

Here are results for one compound from PMC2362906, “Effects of new 17α-hydroxylase/C17,20-lyase inhibitors on LNCaP prostate cancer cell growth in vitro and in vivo” (British Journal of Cancer, 1999).

One experiment deals with serum PSA. Nature of the experiment: Serum PSA (ELISA) in LNCaP tumour-bearing SCID mice. Format: in vivo, male SCID mice. The conditions noted are these: first experiment, 50 mg kg-1 day-1, 28 days. The source says: (§1) Prostate cancer is the most common malignancy and the second leading cause of cancer-related deaths among men in the US and the UK (Shibata et al, 1998). […] Steroidal 17-hydroxylase/C17,20 -lyase (P450c17) (EC 1.14.99.0) was selected as the target enzyme for inhibition, as this is a key regulatory enzyme of androgen synthesis. P450c17 catal- yses two sequential reactions in the steroid biosynthetic pathway and converts pregnenolone and progesterone to the C-19 andro- gens, dehydroepiandrosterone and androstenedione respectively. This enzyme has an identical amino acid sequence in testicular and adrenal tissues (Chung et al, 1987). […] In order to evaluate the effectiveness of these inhibitors we developed a multi-step system, which utilized the LNCaP human prostate cancer cell line. LNCaP cells remain the only androgen receptor (AR)-positive prostate cancer cell line, that can be readily grown in tissue culture (Horoszewicz et al, 1983). These cells respond to androgens with increased cell proliferation and elevated expression of prostate specific antigen (PSA) (Berns et al, 1993). LNCaP cells at early passages are not only androgen-responsive, but also androgen- dependent (Pousette et al, 1997). This is similar to the situation in most tumours of prostatic cancer patients, which are initially highly responsive and dependent on androgens. […] Therefore, we employed LNCaP cells as a model for evaluating the effectiveness of our new inhibitors of androgen synthesis. In this study the compounds selected for evaluation were two groups of azolyl steroids. […] Here we report on the application of LNCaP-CYP17-transfected cells for determining the inhibitory potencies of the new compounds against the P450c17 enzyme. […] We designed and evaluated two groups of azolyl steroids: 5-non-competitive inhibitors (5NCIs), VN/63-1, VN/85-1, VN/87-1 and their corresponding 4 derivatives (4NCIs), VN/107-1, VN/108-1 and VN/109-1. The human P450c17 gene was transfected into LNCaP human prostate cancer cells, and the resultant LNCaP- CYP17 cells were utilized to evaluate the inhibitory potency of the new azolyl steroids. […] We further evaluated our inhibitors in male severe combined immuno- deficient mice bearing LNCaP tumour xenografts. […] We also utilized wild-type LNCaP prostatic carcinoma cells for evaluating the direct effects of new azolyl steroids on proliferation of these cells in vitro and in vivo. MATERIALS AND METHODS Materials The human prostate cancer cell line LNCaP was obtained from the American Type Culture Collection (Rockville, MD, USA). RPMI- 1640 medium, trypsin-EDTA (0.25%/0.02%), penicillin/strepto- mycin (P/S), geniticin (G418), and LipofectAMINE were from Gibco-BRL (Grand Island, NY, USA). Fetal bovine serum (FBS) was obtained from Summit Biotechnology Inc. (Fort Collins, CO, USA) and steroid-free FBS was prepared as described previously (Klus et al, 1996). Phenol red free IMEM and trypsin-versine were purchased from Biofluids Inc. (Rockville, MD, USA). Chloroform and acetonitrile were purchased from JT Baker, Inc (Phillipsburg, NJ, USA). Hydroxypropyl cellulose (HPC) was purchased from Sigma Chemical Co. (St Louis, MO, USA). The PSA enzyme- linked immunusorbent assay (ELISA) kit was from DSL Inc. (Webster, TX, USA). Matrigel was generously supplied by Dr Hynda Kleinman (NIH, Bethesda, MD, USA). […]

In another experiment the test system is serum testosterone. Kind of experiment: Serum testosterone (RIA) in SCID mice. Format: in vivo, male SCID mice. The conditions noted are these: Table 2, first experiment, 28 days of treatment, 50 mg kg-1 day-1; control 1.043. The text has this:
(§2) Prostate cancer is the most common malignancy and the second leading cause of cancer-related deaths among men in the US and the UK (Shibata et al, 1998). […] Steroidal 17-hydroxylase/C17,20 -lyase (P450c17) (EC 1.14.99.0) was selected as the target enzyme for inhibition, as this is a key regulatory enzyme of androgen synthesis. P450c17 catal- yses two sequential reactions in the steroid biosynthetic pathway and converts pregnenolone and progesterone to the C-19 andro- gens, dehydroepiandrosterone and androstenedione respectively. This enzyme has an identical amino acid sequence in testicular and adrenal tissues (Chung et al, 1987). […] In order to evaluate the effectiveness of these inhibitors we developed a multi-step system, which utilized the LNCaP human prostate cancer cell line. LNCaP cells remain the only androgen receptor (AR)-positive prostate cancer cell line, that can be readily grown in tissue culture (Horoszewicz et al, 1983). These cells respond to androgens with increased cell proliferation and elevated expression of prostate specific antigen (PSA) (Berns et al, 1993). LNCaP cells at early passages are not only androgen-responsive, but also androgen- dependent (Pousette et al, 1997). This is similar to the situation in most tumours of prostatic cancer patients, which are initially highly responsive and dependent on androgens. […] Therefore, we employed LNCaP cells as a model for evaluating the effectiveness of our new inhibitors of androgen synthesis. In this study the compounds selected for evaluation were two groups of azolyl steroids. […] Here we report on the application of LNCaP-CYP17-transfected cells for determining the inhibitory potencies of the new compounds against the P450c17 enzyme. […] We designed and evaluated two groups of azolyl steroids: 5-non-competitive inhibitors (5NCIs), VN/63-1, VN/85-1, VN/87-1 and their corresponding 4 derivatives (4NCIs), VN/107-1, VN/108-1 and VN/109-1. The human P450c17 gene was transfected into LNCaP human prostate cancer cells, and the resultant LNCaP- CYP17 cells were utilized to evaluate the inhibitory potency of the new azolyl steroids. […] We further evaluated our inhibitors in male severe combined immuno- deficient mice bearing LNCaP tumour xenografts. […] We also utilized wild-type LNCaP prostatic carcinoma cells for evaluating the direct effects of new azolyl steroids on proliferation of these cells in vitro and in vivo. MATERIALS AND METHODS Materials The human prostate cancer cell line LNCaP was obtained from the American Type Culture Collection (Rockville, MD, USA). RPMI- 1640 medium, trypsin-EDTA (0.25%/0.02%), penicillin/strepto- mycin (P/S), geniticin (G418), and LipofectAMINE were from Gibco-BRL (Grand Island, NY, USA). Fetal bovine serum (FBS) was obtained from Summit Biotechnology Inc. (Fort Collins, CO, USA) and steroid-free FBS was prepared as described previously (Klus et al, 1996). Phenol red free IMEM and trypsin-versine were purchased from Biofluids Inc. (Rockville, MD, USA). Chloroform and acetonitrile were purchased from JT Baker, Inc (Phillipsburg, NJ, USA). Hydroxypropyl cellulose (HPC) was purchased from Sigma Chemical Co. (St Louis, MO, USA). The PSA enzyme- linked immunusorbent assay (ELISA) kit was from DSL Inc. (Webster, TX, USA). Matrigel was generously supplied by Dr Hynda Kleinman (NIH, Bethesda, MD, USA). Inhibitors of androgen synthesis: VN/63-1, VN/85-1, VN/87-1, VN/107-1, VN/108-1 and VN/109-1 were synthesized in our labo- ratory as previously described (Njar et al, 1998). […] Metribolone [17-methyl-3 H]-R1881 ([3 H]-R1881: specific activity 86 Ci mmol-1 ) was purchased from Dupont NEN (Boston, MA, USA).

The subject of the next experiment is LNCaP tumour xenografts. Nature of the experiment: LNCaP tumour xenograft growth in male SCID mice. In kind it is in vivo. The conditions noted are these: first experiment.
Source text: as §2

The target of another experiment is T1, LNCaP androgen receptor (Homo sapiens, UniProt P10275, T878A).
T1 construct: endogenous in cells; host or cells: LNCaP (wild-type, untransfected)
Nature of the experiment: Androgen receptor binding assay ([3H]R1881 displacement in LNCaP cells). To be noted: from growth and binding results. The source says: Prostate cancer is the most common malignancy and the second leading cause of cancer-related deaths among men in the US and the UK (Shibata et al, 1998). […] Steroidal 17-hydroxylase/C17,20 -lyase (P450c17) (EC 1.14.99.0) was selected as the target enzyme for inhibition, as this is a key regulatory enzyme of androgen synthesis. P450c17 catal- yses two sequential reactions in the steroid biosynthetic pathway and converts pregnenolone and progesterone to the C-19 andro- gens, dehydroepiandrosterone and androstenedione respectively. This enzyme has an identical amino acid sequence in testicular and adrenal tissues (Chung et al, 1987). […] In order to evaluate the effectiveness of these inhibitors we developed a multi-step system, which utilized the LNCaP human prostate cancer cell line. LNCaP cells remain the only androgen receptor (AR)-positive prostate cancer cell line, that can be readily grown in tissue culture (Horoszewicz et al, 1983). […] We designed and evaluated two groups of azolyl steroids: 5-non-competitive inhibitors (5NCIs), VN/63-1, VN/85-1, VN/87-1 and their corresponding 4 derivatives (4NCIs), VN/107-1, VN/108-1 and VN/109-1. […] We further evaluated our inhibitors in male severe combined immuno- deficient mice bearing LNCaP tumour xenografts. […]

Experiment [1] has as its target human prostatic 5-reductase. The arrangement: method as in Njar et al, 1998. The conditions noted are these: human prostatic microsomes; reported previously; ref Njar et al, 1998; cited from earlier work.
In experiment [2] the test system is LNCaP cells. Kind of experiment: Testosterone-stimulated wild-type LNCaP cell growth. Format: cell-based, human.
Source text: as §2

Experiment [3] deals with LNCaP cells. Kind of experiment: DHT-stimulated wild-type LNCaP cell growth. In kind it is cell-based, human. The conditions noted are these: 0.03 nM DHT, 9 days.
Source text: as §2

A further experiment deals with serum DHT. Nature of the experiment: Serum DHT (RIA) in SCID mice. To be noted: Table 2, first experiment, 28 days of treatment, 50 mg kg-1 day-1; control 243.8. Format: in vivo, male SCID mice.
Source text: as §2

Experiment [4] deals with LNCaP cells. Nature of the experiment: LNCaP cell growth in steroid-free medium. Format: cell-based, human. To be noted: steroid-free medium.
Source text: as §1, with “USA).” for “USA). Fetal bovine serum (FBS) was obtained from Summit Biotechnology Inc. (Fort Collins, CO, USA) and steroid-free FBS was prepared as described previously (Klus et al, 1996). Phenol red free IMEM and trypsin-versine were purchased from Biofluids Inc. (Rockville, MD, USA). Chloroform and acetonitrile were purchased from JT Baker, Inc (Phillipsburg, NJ, USA). Hydroxypropyl cellulose (HPC) was purchased from Sigma Chemical Co. (St Louis, MO, USA). The PSA enzyme- linked immunusorbent assay (ELISA) kit was from DSL Inc. (Webster, TX, USA). Matrigel was generously supplied by Dr Hynda Kleinman (NIH, Bethesda, MD, USA).”

In experiment [5] the target is T2, human 17α-hydroxylase/C17,20-lyase (P450c17) expressed in LNCaP-CYP17 cells (Homo sapiens, UniProt P05093).
T2 sequence (P05093 9-508 limits assumed): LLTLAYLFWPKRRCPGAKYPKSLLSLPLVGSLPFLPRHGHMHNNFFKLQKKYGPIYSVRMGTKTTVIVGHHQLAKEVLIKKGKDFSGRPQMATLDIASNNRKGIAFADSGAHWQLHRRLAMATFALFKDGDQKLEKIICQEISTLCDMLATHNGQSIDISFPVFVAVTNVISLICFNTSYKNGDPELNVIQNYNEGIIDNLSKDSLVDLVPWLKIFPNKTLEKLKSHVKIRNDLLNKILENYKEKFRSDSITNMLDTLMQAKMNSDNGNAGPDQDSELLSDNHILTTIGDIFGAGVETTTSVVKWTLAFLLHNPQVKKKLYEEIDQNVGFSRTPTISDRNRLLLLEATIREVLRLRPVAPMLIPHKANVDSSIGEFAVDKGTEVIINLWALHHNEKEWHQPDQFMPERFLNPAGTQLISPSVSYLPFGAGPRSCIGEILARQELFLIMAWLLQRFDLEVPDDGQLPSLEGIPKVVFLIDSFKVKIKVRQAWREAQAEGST
Kind of experiment: [3H]-acetic acid releasing assay (AARA) with LNCaP-CYP17 cells. The conditions noted are these: LNCaP-CYP17 cells, 7 μM [21-3H]17-OHP5, 16 h; mean ± s.e.m., three experiments. Format: cell-based.

T1 sequence (P10275 whole entry T878A): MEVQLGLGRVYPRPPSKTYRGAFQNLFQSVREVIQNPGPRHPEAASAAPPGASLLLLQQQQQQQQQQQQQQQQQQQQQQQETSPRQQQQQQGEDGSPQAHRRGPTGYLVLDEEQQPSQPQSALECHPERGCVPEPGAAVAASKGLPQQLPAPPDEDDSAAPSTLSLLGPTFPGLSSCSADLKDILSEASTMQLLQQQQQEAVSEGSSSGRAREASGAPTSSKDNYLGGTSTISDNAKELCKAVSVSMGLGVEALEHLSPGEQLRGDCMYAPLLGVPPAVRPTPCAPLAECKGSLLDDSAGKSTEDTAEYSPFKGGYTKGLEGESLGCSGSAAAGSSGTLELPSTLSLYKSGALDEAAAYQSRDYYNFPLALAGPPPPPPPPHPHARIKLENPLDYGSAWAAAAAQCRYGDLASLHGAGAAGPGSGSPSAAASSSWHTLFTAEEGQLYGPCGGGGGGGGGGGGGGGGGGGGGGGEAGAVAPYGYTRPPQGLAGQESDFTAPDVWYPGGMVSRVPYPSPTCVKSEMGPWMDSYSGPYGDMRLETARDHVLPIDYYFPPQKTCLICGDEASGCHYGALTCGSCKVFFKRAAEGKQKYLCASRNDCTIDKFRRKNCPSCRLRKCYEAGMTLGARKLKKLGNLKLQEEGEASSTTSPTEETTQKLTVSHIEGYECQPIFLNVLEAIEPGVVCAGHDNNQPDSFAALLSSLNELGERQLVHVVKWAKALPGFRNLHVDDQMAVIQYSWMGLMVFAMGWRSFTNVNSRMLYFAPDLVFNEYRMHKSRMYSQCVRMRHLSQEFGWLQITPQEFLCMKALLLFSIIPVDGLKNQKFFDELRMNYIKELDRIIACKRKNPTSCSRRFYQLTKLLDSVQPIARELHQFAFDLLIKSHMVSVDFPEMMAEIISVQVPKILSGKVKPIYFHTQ

By IC50 is commonly meant the midpoint of a concentration-inhibition curve. Consider `C[C@]12CCC(=O)C=C1CCC1C2CC[C@]2(C)C(n3ccnc3)=CCC12` (stereo partly drawn) [VN/108-1], for which the “Serum PSA levels versus control” value in the experiment with serum PSA is on record as “lowest levels of serum PSA; also recorded: significantly lower”. For the same compound, the “Serum Testosterone” value in the experiment on serum testosterone worked out at 0.081 ng/mL. Further, the “Inhibition of LNCaP tumour growth (tumour volume)” value with LNCaP tumour xenografts (50 mg kg-1 day-1, 4 weeks) amounted to 9%. Also, in the experiment on LNCaP tumour xenografts (50 mg kg-1 day-1, 28 days), the “Effect on tumour growth or tumour weights” value was “no significant effects on tumour growth or tumour weights”. The “Character at LNCaP AR” value on LNCaP androgen receptor is given as “partial agonist of LNCaP AR”. Also, the IC50 was 142 nM in [1] and 2.96 ± 0.78 nM in experiment [5]. Further, in the experiment on LNCaP cells [2] (0.1 nM testosterone, 9 days), the “Concentration that completely inhibited the growth stimulatory effect of testosterone” value was found to be 5 µM. Further, the “Effect on growth-stimulating effects of androgens” value in the experiment with LNCaP cells [2] (wild-type LNCaP cells, testosterone or DHT) is recorded as “blocked the growth-stimulating effects of androgens”. Also, the “Concentration that completely blocked DHT stimulation” value in the experiment with LNCaP cells [3] came out at 5.0 µM. Also, the “Serum DHT” value with serum DHT amounted to 122.1 pg/mL. Further, the “Effect on LNCaP cell growth in absence of androgens” value with LNCaP cells [4] is “stimulated cell growth in absence of androgens”.
